Structures are written as SMILES. In brackets after ≈: the same amount, converted by molar mass.

For series [1], the system named is invasive aspergillosis. As to conditions: daily administered at 10 mg/kg; cited from earlier work.
The subject of series [2] is Aspergillus Niger (ATCC 16404). The experiment in a line: Broth micro-dilution antifungal susceptibility test (MIC). The settings on record: ATCC16404, 120 h, RPMI 1640 pH 7, five days at 35° C., geometric mean of two experiments. Format: cell-based. As to the method:
(§1) Trichophyton Rubrum (ATCC 28188, PBI International), Trichophyton Mentagrophytes (ATCC 9533, PBI International), Aspergillus Niger (ATCC 16404, PBI International), Scopulariopsis Brevicaulis (ATCC 36840, DSMZ), Candida Albicans (ATCC 90028, PBI International), Candida Glabrata (ATCC 90030, DSMZ).
(§2) Strains were prepared from freeze-dried ampoules or freeze-dried pellets. An isolation of the suspensions was made on Potato Dextrose Agar (PDA) to test the strains purity. A strains' massive growth was then made streaking microbial suspensions on PDA plates.
(§3) Incubation was at 30° C. for 48-72 hours (Candida yeasts) and for 7-10 days (filamentous fungi).
(§4) The yeasts' colonies and the filamentous fungi's conidia were harvested with 3-5 mL of RPMI 1640+50% glycerol and the aliquots frozen at −80° C.
(§5) Compounds' minimal inhibition concentration (MIC) was determined through broth micro-dilution susceptibility test using a method developed in agreement with the National Committee for Clinical Laboratory Standards (NCCLS) (National Committee for Clinical Laboratory Standards. Reference Method for Broth Dilution Antifungal Susceptibility Testing of Yeasts; Approved standard-Second Edition M27-A2. 2002; Vol. 22, No. 15) (National Committee for Clinical Laboratory Standards. Reference Method for Broth Dilution Antifungal Susceptibility Testing of Filamentous Fungi; Approved standard M38-A. 2002; Vol. 22, No. 16).
(§6) Assays were carried out in RPMI 1640 with L-glutamine medium buffered to pH 7 with 0.165M 3-(N-morpholino)propanesulfonic acid (MOPS) and 10M NaOH and supplemented with 18 g glucose/litre. The tests were performed using 96 well sterile plates (inoculum size of 1×10^5 CFU/mL). Compounds stock solutions were prepared at 12.8 mg/mL in 100% DMSO. A series of twofold dilutions were prepared in plate using RPMI 1640. Final concentrations ranged from 0.125 to 128 μg/mL at 1% DMSO.
(§7) MIC is defined as the lowest concentration of antifungal agent which prevents any visible growth and was determined after 48 h of incubation for yeasts (35° C.) and after five days of incubation for filamentous fungi (35° C.).

The test system of series [3] is Candida Albicans (ATCC 90028). Described as above. The settings on record: ATCC90028, RPMI 1640 pH 7, 48 h at 35° C., geometric mean of two experiments. In kind it is cell-based. The method, then:
as §1, §2, §3, §4, §5, §6, §7

Series [4] concerns Candida Glabrata (ATCC 90030). The series is described as above. As to conditions: Nakaseomyces glabratus, ATCC90030; RPMI 1640 pH 7, 48 h at 35° C.; geometric mean of two experiments. Format: cell-based. As to the method:
as §1, §2, §3, §4, §5, §6, §7

For series [5], the system named is Scopulariopsis Brevicaulis (ATCC 36840). Described as above. In kind it is cell-based. As to conditions: ATCC36840, 120 h, RPMI 1640 pH 7, five days at 35° C., geometric mean of two experiments. As to the method: as §1, §2, §3, §4, §5, §6, §7
The subject of series [6] is Trichophyton Mentagrophytes (ATCC 9533). The description is as above. In kind it is cell-based. As to conditions: ATCC9533, 120 h, RPMI 1640 pH 7, five days at 35° C., geometric mean of two experiments, read-out: MIC Tricophyton Mentagrophytes ATCC 9533. As to the method: as §1, §2, §3, §4, §5, §6, §7
Series [7] has as its system Trichophyton Rubrum (ATCC 28188). The series is described as above. Format: cell-based. As to conditions: ATCC28188, 120 h, RPMI 1640 pH 7, five days at 35° C., geometric mean of two experiments, read-out: MIC Trycophyton Rubrum ATCC 28188. The method, then: as §1, §2, §3, §4, §5, §6, §7

As for `C[C@@H]1[C@H](O)[C@@H](C)/C=C/C=C/C=C/C=C/C=C/C=C/C=C/[C@H](O[C@@H]2O[C@H](C)[C@@H](O)[C@H](N)[C@@H]2O)C[C@@H]2O[C@](O)(C[C@@H](O)C[C@@H](O)[C@H](O)CC[C@@H](O)C[C@@H](O)CC(=O)O[C@H]1C)C[C@H](O)[C@H]2C(=O)O` [Amphotericin B], the rate of nephrotoxicity in series [1] is 31%.
`O=C(c1ccc2cccnc2c1O)N1CCC2CCCCC2C1` (stereo not shown) [Example 6, (8-Hydroxyquinolin-7-yl)(octahydroisoquinolin-2(1H)-yl)methanone]: the MIC came out at 0.5 µg/mL (≈ 1.61 µM) in series [2]; 1.41 µg/mL (≈ 4.54 µM) in series [3]; 2 µg/mL (≈ 6.44 µM) in series [4]; 1.41 µg/mL (≈ 4.54 µM) in series [5]; 1.41 µg/mL (≈ 4.54 µM) in series [6]; 1.41 µg/mL (≈ 4.54 µM) in series [7].
`O=C(c1ccc2cccnc2c1O)N1Cc2ccccc2C1` [Example 10, (8-Hydroxyquinolin-7-yl)(isoindolin-2-yl)methanone]: the MIC in series [2] was determined as 0.25 µg/mL (≈ 0.861 µM); in series [3], 2 µg/mL (≈ 6.89 µM); in series [4], 2 µg/mL (≈ 6.89 µM); in series [5], 2 µg/mL (≈ 6.89 µM); in series [6], 2 µg/mL (≈ 6.89 µM); in series [7], 1 µg/mL (≈ 3.44 µM).
As to `CN(C(=O)c1ccc2cccnc2c1O)c1ccc(Br)cc1` [Example 29, N-(4-Bromophenyl)-8-hydroxy-N-methylquinoline-7-carboxamide], the MIC worked out at 0.13 µg/mL (≈ 0.364 µM) in series [2]; 4 µg/mL (≈ 11.2 µM) in series [3]; 4 µg/mL (≈ 11.2 µM) in series [4]; 2 µg/mL (≈ 5.6 µM) in series [5]; 1 µg/mL (≈ 2.8 µM) in series [6]; 2 µg/mL (≈ 5.6 µM) in series [7].
On to `O=C(c1ccc2cccnc2c1O)N1C2CCCCC2C2CCCCC21` (stereo not shown) [Example 49, (Decahydro-1H-carbazol-9(9aH)-yl)(8-hydroxyquinolin-7-yl)methanone], for which the MIC stood at 0.25 µg/mL (≈ 0.713 µM) in series [2]; 2 µg/mL (≈ 5.71 µM) in series [3]; 2.83 µg/mL (≈ 8.08 µM) in series [4]; 1 µg/mL (≈ 2.85 µM) in series [5]; 1.41 µg/mL (≈ 4.02 µM) in series [6]; 0.71 µg/mL (≈ 2.03 µM) in series [7].
For the molecule `CN(Cc1ccc(Cl)cc1)C(=O)c1ccc2cccnc2c1O` [Example 56, N-(4-Chlorobenzyl)-8-hydroxy-N-methylquinoline-7-carboxamide], the MIC came to 0.71 µg/mL (≈ 2.17 µM) in series [2]; 1.41 µg/mL (≈ 4.31 µM) in series [3]; 2 µg/mL (≈ 6.12 µM) in series [4]; 2 µg/mL (≈ 6.12 µM) in series [5]; 1 µg/mL (≈ 3.06 µM) in series [6]; 2 µg/mL (≈ 6.12 µM) in series [7].
`O=C(c1ccc2cccnc2c1O)N1CCCc2ccc(F)cc21` [Example 61, (7-Fluoro-3,4-dihydroquinolin-1(2H)-yl)(8-hydroxyquinolin-7-yl)methanone]: the MIC came to 0.25 µg/mL (≈ 0.776 µM) in series [2]; 2 µg/mL (≈ 6.2 µM) in series [3]; 2 µg/mL (≈ 6.2 µM) in series [4]; 0.71 µg/mL (≈ 2.2 µM) in series [5]; 2 µg/mL (≈ 6.2 µM) in series [6]; 1 µg/mL (≈ 3.1 µM) in series [7].
As to `O=C(c1ccc2cccnc2c1O)N1CCCc2c(F)cc(F)cc21` [Example 70, (5,7-Difluoro-3,4-dihydroquinolin-1(2H)-yl)(8-hydroxyquinolin-7-yl)methanone], the MIC in series [2] is 0.25 µg/mL (≈ 0.735 µM); in series [3] it was 2 µg/mL (≈ 5.88 µM); in series [4], 1 µg/mL (≈ 2.94 µM); in series [5] it was 1 µg/mL (≈ 2.94 µM); in series [6], 2 µg/mL (≈ 5.88 µM); in series [7], 1 µg/mL (≈ 2.94 µM).
On to `O=C(c1ccc2cccnc2c1O)N1CCCc2c(F)cccc21` [Example 71, (5-Fluoro-3,4-dihydroquinolin-1(2H)-yl)(8-hydroxyquinolin-7-yl)methanone], for which the MIC in series [2] came to 0.25 µg/mL (≈ 0.776 µM); in series [3], 2 µg/mL (≈ 6.2 µM); in series [4], 2.83 µg/mL (≈ 8.78 µM); in series [5] it was 0.71 µg/mL (≈ 2.2 µM); in series [6] it was 2 µg/mL (≈ 6.2 µM); in series [7], 1 µg/mL (≈ 3.1 µM).
Regarding `O=C(c1ccc2cccnc2c1O)N1CCCc2cc(F)ccc21` [Example 72, (6-Fluoro-3,4-dihydroquinolin-1(2H)-yl)(8-hydroxyquinolin-7-yl)methanone], the MIC in series [2] is 0.25 µg/mL (≈ 0.776 µM); in series [3], 2 µg/mL (≈ 6.2 µM); in series [4] it was 2 µg/mL (≈ 6.2 µM); in series [5] it was 0.5 µg/mL (≈ 1.55 µM); in series [6] it was 2 µg/mL (≈ 6.2 µM); in series [7] it was 1 µg/mL (≈ 3.1 µM).
As for `O=C(c1ccc2cccnc2c1O)N1CCCc2c(Cl)ccc(O)c21` [Example 73, (5-Chloro-8-hydroxy-3,4-dihydroquinolin-1(2H)-yl)(8-hydroxyquinolin-7-yl)methanone], the MIC is 0.125 µg/mL (≈ 0.352 µM) in series [2]; 2 µg/mL (≈ 5.64 µM) in series [3]; 1 µg/mL (≈ 2.82 µM) in series [4]; 4 µg/mL (≈ 11.3 µM) in series [5]; 2 µg/mL (≈ 5.64 µM) in series [6]; 2 µg/mL (≈ 5.64 µM) in series [7].
Regarding `O=C(c1ccc2cccnc2c1O)N1CCOc2ccccc21` [Example 74, (2H-Benzo[b][1,4]oxazin-4(3H)-yl)(8-hydroxyquinolin-7-yl)methanone], the minimum inhibitory concentration (MIC) in series [2] was 0.18 µg/mL (≈ 0.588 µM); in series [3], 2 µg/mL (≈ 6.53 µM); in series [4], 2 µg/mL (≈ 6.53 µM); in series [5], 0.71 µg/mL (≈ 2.32 µM); in series [6] it was 1.41 µg/mL (≈ 4.6 µM); in series [7] it was 1 µg/mL (≈ 3.26 µM).

Values taken from patent publication US8729098B2, “Tertiary 8-hydroxyquinoline-7-carboxamide derivatives and uses thereof” (Polichem SA, priority 2009, dated 2014).
